Entries after “also recorded” stand apart in the source; their conditions may differ.
Key:
Assay type in all cases: cell-based
[1] = test system: tumor cells MCF7, MDA-MB-453 and MDA-MB-231; experiment: MTT cell viability, tumor cells (stated collectively); settings: 48 h, MTT; tumor cells stated collectively
Description: (§1) Four different breast cells lines were used in this study: MCF-10A (non-tumorigenic), MCF7 (ER+ BC), MDA-MB453 (HER2+ BC) and MDA-MB231 (TNBC). All lineages were obtained from the American Type Culture Collection (ATCC; Manassas, VA, USA) and maintained at a temperature of 37 °C according to the supplier’s recommendations. Only MDA-MB231 cells were not kept in an atmosphere of 5% CO2. MCF-10A was grown in Dulbecco’s Modified Eagle’s Medium (DMEM F12, Gibco, ThermoFisher Scientific, Waltham, MA, USA) supplemented with 20 ng/mL epidermal growth factor (Gibco, ThermoFisher Scientific, Waltham, MA, USA), 0.5 μg/mL hydrocortisone (Sigma-Aldrich, Sigma-Aldrich, St. Louis, MO, USA) and 10 μg/mL insulin (Gibco, ThermoFisher Scientific, Waltham, MA, USA). MCF7 was cultivated in Roswell Park Memorial Institute Medium (RPMI-1640, Gibco, ThermoFisher Scientific, Waltham, MA, USA), MDA-MB453 in IMDM and MDA-MB231 in Leibovitz’s medium (L-15, Gibco, ThermoFisher Scientific, Waltham, MA, USA). All media were supplemented with 10% fetal bovine serum (FBS, Gibco, ThermoFisher Scientific, Waltham, MA, USA) and 50 µg/mL of gentamicin (Cultilab, Campinas, SP, Brazil). The cells were confirmed to be free of mycoplasma and passaged using a 0.25% trypsin-EDTA solution when confluency reached 80–90%.
(§2) Cell viability was determined by spectrophotometric quantification of MTT (3-[4,5-dimethyl-thiazol-2-yl]-2,5-diphenyltetrazolium bromide—Invitrogen. Waltham, MA, USA) reduction to formazan crystals. Cells were seeded at the density of 1 × 10^4 cells/well (MCF-10A, MDA-MB453), 1.5 × 10^4 cells/well (MDA-MB231) and 3 × 10^3 cells/well (MCF7) in 96-well culture dishes and incubated with different concentrations of the compounds (1.25, 2.5, 5, 10, 20, 40, 80 and 160 µM) for 48 h. The medium was than replaced by MTT solution (0.5 mg/mL) and plates were kept at 37 °C for 4 h. After the aspiration of the media, the formazan crystals were diluted with 100 μL of dimethyl-sulfoxide (DMSO)/well and the absorbance at 570 nm was measured using a spectrophotometer (Thermo Plate TP-Reader, Waltham, MA, USA). Cytotoxicity was calculated using the following formula: Cytotoxicity (%) = [absorbance of cells treated with the compounds/absorbance of cells treated with DMSO) × 100]. The IC50 was determined for each compound and was defined as the concentration required to inhibit 50% of cell growth, compared to the control sample (cells treated with DMSO 0.05%).
(§3) Data were presented as the mean ± standard deviation (SD) and analyzed using GraphPad Prism 9.0 software (GraphPad Software Inc., La Jolla, CA, USA). All data were assayed in triplicate. Statistical analysis was performed using one-way ANOVA, Tukey´s HSD post hoc test and Student’s t-test. The IC50 was calculated using non-linear regression and the selectivity index (SI) was calculated by the ratio between the IC50 values corresponding to the non-tumor cell lineage (MCF-10A) and the IC50 values corresponding to the BC cell lines. Statistical significance was accepted at p values < 0.05.

ENTPD2 = experiment: qPCR, ENTPD2 expression in MCF7; settings: vs untreated cells
Description: (§4) Total RNA was extracted using Trizol reagent (Invitrogen), according to the manufacturer’s protocol. The quality of extracted RNA was verified by the spectrophotometric readings at 260 and 280 nm (Nanodrop 1000-ThermoFisher), and the first strand of cDNA was synthesized from 1 µg of total RNA via reverse transcription using GoScript™ Reverse Transcription Mix (Promega, Madison, WI, EUA). qPCR analysis was performed using 5.0 μL of Power SYBR Green PCR Master Mix (Applied Biosystems, Carlsbad, CA, USA) and run on a StepOnePlus Systems (Applied Biosystems, Carlsbad, CA, USA) device with the following cycling parameters: 40 cycles of 95 °C for 10 s and 60 °C for 30 s. The comparative Cq was used to find the relative expression of CDH1 (E-caderina), ENTPD1 (ectonucleoside triphosphate diphosphohydrolase 1), ENTPD2 (ectonucleoside triphosphate diphosphohydrolase 2), ENTPD3 (ectonucleoside triphosphate diphosphohydrolase 3), ENTPD5 ([…]) and KRT10 (keratin 10) genes, after relative standard curve optimization. β-2-microglobulin (β2M) was used as a reference gene. The primer sequences are described in Table 3.

MCF7 = experiment: Clonogenic (colony formation) assay; settings: MCF7, 9.00 µM (highest concentration), 48 h
Description: MCF7 cells were seeded at a density of 500 cells per well in 6-well culture. […] The medium was removed and, after 12 days, cells were washed 3 times with 1 × Phosphate-buffered saline (PBS), fixed with formaldehyde (4% v/v) and stained with crystal violet solution (0.5% v/v). Plates were scanned using L-Pix (Loccus Biotecnologia, Cotia, SP, Brazil) to obtain the images, incubated with 300 µL of acetic acid 33% v/v, and 100 µL of this solution was transferred to 96-well plates to evaluate the absorbance at 570 nm in a microplate reader (Thermo Plate TP-Reader, ThermoFisher). The number of colonies per well was calculated in relation to the untreated cells (considered as 100% of colony formation).

CDH1 = experiment: qPCR, CDH1 expression in MCF7; settings: vs untreated cells
Description: as §4

ENTPD3 = experiment: qPCR, ENTPD3 expression in MCF7; settings: vs untreated cells
Description: as §4

ENTPD1 = experiment: qPCR, ENTPD1 expression in MCF7; settings: vs untreated cells
Description: as §4

KRT10 = experiment: qPCR, KRT10 expression in MCF7; settings: vs untreated cells
Description: as §4

MCF-10A = experiment: MTT cell viability, non-tumor cell line MCF-10A; settings: Homo sapiens, MCF-10A, 48 h, 1.25–160 μM, read-out: IC50 MCF-10A
Description: as §1, §2, §3

ENTPD5 = experiment: qPCR, ENTPD5 expression in MCF7; settings: vs untreated cells
Description: as §4

MDA-MB-453 = experiment: MTT cell viability, MDA-MB-453
Description: as §1, §2, §3

O=C(c1ccc(-n2cnnn2)cc1)N1CCN(S(=O)(=O)c2ccc(Cl)cc2)CC1 [Compound 3, (4-(1H-tetrazol-1-yl)phenyl)(4-((4-chlorophenyl)sulfonyl)piperazin-1-yl)methanone]
IC50 [1]: < 50 µM | Fold Change ENTPD2 mRNA (ENTPD2; MCF7, 1.125 µM): 1.374 | Fold Change ENTPD2 mRNA (ENTPD2; MCF7, 2.25 µM): 1.417 | Fold Change ENTPD2 mRNA (ENTPD2; MCF7, 4.5 µM): 1.109 | Colony formation (MCF7): significantly reduced colony formation; also recorded: Colony formation was inhibited | Fold Change CDH1 mRNA (CDH1; MCF7, 1.125 µM): 1.874 | Fold Change CDH1 mRNA (CDH1; MCF7, 2.25 µM): 1.045 | Fold Change ENTPD3 mRNA (ENTPD3; MCF7, 1.125 µM): 1.641 | Fold Change ENTPD3 mRNA (ENTPD3; MCF7, 2.25 µM): 1.074 | Fold Change ENTPD3 mRNA (ENTPD3; MCF7, 4.5 µM): 1.229 | Fold Change ENTPD1 mRNA (ENTPD1; MCF7, 1.125 µM): 1.102 | Fold Change ENTPD1 mRNA (ENTPD1; MCF7, 2.25 µM): 1.331 | Fold Change ENTPD1 mRNA (ENTPD1; MCF7, 4.5 µM): 1.006 | Fold Change KRT10 mRNA (KRT10; MCF7, 1.125 µM): 1.309 | Fold Change KRT10 mRNA (KRT10; MCF7, 2.25 µM): 1.913 | Fold Change KRT10 mRNA (KRT10; MCF7, 4.5 µM): 1.383 | IC50 (MCF-10A): > 160 µM | Fold Change ENTPD5 mRNA (ENTPD5; MCF7, 1.125 µM): 2.046 | Fold Change ENTPD5 mRNA (ENTPD5; MCF7, 2.25 µM): 1.437 | Fold Change ENTPD5 mRNA (ENTPD5; MCF7, 4.5 µM): 1.306 | IC50 (MDA-MB-453; Homo sapiens, MDA-MB-453, 48 h, MTT, 1.25–160 μM, read-out: IC50 MDA-MB-453): 80 µM | SI MDA-MB-453 (MDA-MB-453; IC50 MCF10A / IC50 MDA-MB-453): >2.00

Source: publication PMC11433764, “A Novel Compound from the Phenylsulfonylpiperazine Class: Evaluation of In Vitro Activity on Luminal Breast Cancer Cells” (Molecules, 2024)
